Earlier results in patent publication US20050142194A1, “Composition comprising CS” (ALTERGON S.A., priority 2003, published 2005).

How the values were obtained:
[1] = general statement of the prior art part
pepsin = settings: prior art statement, middle of the twentieth century

Substance: chondroitin sulfate
- solubility in water [1]: poorly soluble in water
- action on the proteolytic activity of pepsin (pepsin): clear inhibitory action

Substance: sodium chondroitin sulfate
- solubility in water [1]: poorly soluble in water
